“And” between values parts separate entries of the source, which are not always exact repeats. Identical values can stand only once. Like-named read-outs stand apart in the source and are kept apart here.
Tests used:
[1] = test system: TOP2A-dependent TCF-transcription in SW620-TOP tumor organoids; assay: TCF (TOPflash) reporter assay in 3D tumor organoids; format: cell-based; conditions: SW620-TOP tumor organoids, 72 hours; read-out: IC50 inhibition of TCF-transcription
Procedure: TCF reporter assay in 3D Tumor organoid. Stable engineered cells containing pCDH-TOPflash-luc-EF1-puro were used to generate tumor organoid arrayed in 96-well plates and treated for 72 hours. One-Glo™ luciferase reagent and CellTiter-Glo™ 3D cell viability reagent (Promega) were used to determine the TCF reporter activity in viable cells.
After characterizing 3 and 7 as TOP2A ATP-competitive inhibitors, these compounds were next tested for their ability to inhibit TOP2A-dependent TCF-transcription using the well characterized TOPflash (TOP) luminescent reporter, which was used to generate a stably transduced SW620-TOP reporter cells as described previously (Zhou, et al., Oncogene 2016, 35:4990-9). These cells were used to generate single 3D tumor organoids (700 μm in diameter) uniformly arrayed in 96-well plates, which mimic aspects of tumor function observed in vivo. […] Like neo, the mode of action of compounds 3 and 7 also results in significant antitumor activity (FIGS. 3E-3H). […] In other words, the activity of 3 and 7 is long lasting, suppressing CSC stemness and related tumorigenicity. EMT is a major driving force promoting tumor cell invasion and metastasis. […] Tumor organoids were dissociated, and viable cells were washed and plated into the top chamber of 96-well invasion plate coated with Matrigel and incubated for an additional 72 hours without adding any additional compound. […] Taken together, the biological activity of 3 and 7 is consistent with the activity of neo, inhibiting TOP2A-dependent TCF-transcription that in turn reverses EMT while inhibiting the associated tumorigenic properties of mCRC.
A similar trend in IC50 values was observed compared to TOP2A enzyme studies, further supporting our proposed mechanism of action as inhibition of TOP2A-dependent TCF-transcription.
3D Tumor organoid TOPflash reporter assay. […] 35(38): p. 4990-9.] were used to generate tumor organoids arrayed in 96-well plates and treated for 72 h with TOP2A inhibitors. One-Glo™ luciferase reagent and CellTiter-Glo™ 3D cell viability reagent (Promega, WI) were used to determine the TCF reporter activity in viable cells. Briefly, reagents were added to the spheroids at 1:1 ratio (v:v) and the plates were placed on an orbital shaker (300 rpm) for 10 min at room temperature before the luminescence was read with Envision plate reader (PerkinElmer, MA). TCF reporter activity was normalized to organoid viability and inhibitors treated conditions were normalized to DMSO treated controls.

Human TOP2A = target: T1, Human TOP2A (Homo sapiens, UniProt P11388); assay: TOP2A DNA decatenation assay (kDNA, agarose gel); format: biochemical
T1 construct: purchased TopoGEN (Buena Vista, CO)
T1 sequence (P11388 whole entry): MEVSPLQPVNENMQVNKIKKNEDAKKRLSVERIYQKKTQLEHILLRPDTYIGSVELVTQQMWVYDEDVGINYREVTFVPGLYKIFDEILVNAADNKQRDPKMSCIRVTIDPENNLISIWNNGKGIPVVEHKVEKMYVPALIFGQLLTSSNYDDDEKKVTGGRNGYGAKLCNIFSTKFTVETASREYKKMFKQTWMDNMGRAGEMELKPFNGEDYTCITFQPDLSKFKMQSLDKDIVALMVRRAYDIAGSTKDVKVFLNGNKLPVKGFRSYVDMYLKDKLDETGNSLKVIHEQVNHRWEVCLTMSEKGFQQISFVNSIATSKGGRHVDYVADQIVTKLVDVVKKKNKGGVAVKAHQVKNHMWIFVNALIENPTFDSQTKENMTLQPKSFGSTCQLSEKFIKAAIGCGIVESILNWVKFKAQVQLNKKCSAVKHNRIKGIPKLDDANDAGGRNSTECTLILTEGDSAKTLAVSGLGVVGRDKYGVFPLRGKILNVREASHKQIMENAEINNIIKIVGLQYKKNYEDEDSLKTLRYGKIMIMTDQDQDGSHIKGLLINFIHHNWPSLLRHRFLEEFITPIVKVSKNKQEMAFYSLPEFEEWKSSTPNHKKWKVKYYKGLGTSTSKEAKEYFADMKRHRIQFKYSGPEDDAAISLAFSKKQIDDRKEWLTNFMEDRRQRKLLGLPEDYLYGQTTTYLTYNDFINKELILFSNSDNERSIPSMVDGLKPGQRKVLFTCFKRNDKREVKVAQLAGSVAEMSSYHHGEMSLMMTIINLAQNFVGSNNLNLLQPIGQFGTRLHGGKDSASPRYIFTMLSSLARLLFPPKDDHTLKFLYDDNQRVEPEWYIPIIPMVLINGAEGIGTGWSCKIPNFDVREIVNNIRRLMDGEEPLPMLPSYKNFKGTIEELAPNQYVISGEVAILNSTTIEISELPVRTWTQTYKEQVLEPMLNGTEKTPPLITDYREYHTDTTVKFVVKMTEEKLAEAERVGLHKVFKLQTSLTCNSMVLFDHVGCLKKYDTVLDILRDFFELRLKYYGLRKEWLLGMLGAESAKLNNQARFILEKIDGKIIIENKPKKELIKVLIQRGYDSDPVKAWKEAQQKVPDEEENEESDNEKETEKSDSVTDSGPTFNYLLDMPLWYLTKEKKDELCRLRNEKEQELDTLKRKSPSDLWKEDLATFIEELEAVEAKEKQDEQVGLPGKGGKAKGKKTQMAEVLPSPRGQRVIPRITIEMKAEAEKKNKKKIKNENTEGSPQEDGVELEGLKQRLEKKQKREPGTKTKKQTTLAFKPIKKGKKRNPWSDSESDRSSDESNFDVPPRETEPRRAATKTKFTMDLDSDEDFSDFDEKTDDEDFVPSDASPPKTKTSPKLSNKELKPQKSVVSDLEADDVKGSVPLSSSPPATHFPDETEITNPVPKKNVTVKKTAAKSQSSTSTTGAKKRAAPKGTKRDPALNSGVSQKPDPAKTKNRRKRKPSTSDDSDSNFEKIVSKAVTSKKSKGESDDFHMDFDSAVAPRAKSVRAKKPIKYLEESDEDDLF
Procedure: Inhibition of TOP2A activity. Human TOP2A, kDNA, and assay buffers were obtained from TopoGEN (Buena Vista, CO). The synthesized compounds were screened for their TOP2A inhibitory activity by the intensity of DNA decatenation bands on a DNA gel when compared to the vehicle. Compounds were initially incubated with TOP2A (3 U/reaction) for 20 min at a 30 μM and 1.2% DMSO concentration in a 37° C. incubator without CO2.
The decatenation reaction was initiated immediately after by adding 2 mM ATP and 35 ng/reaction of kDNA, then incubated for 1 hour in a 37° C. water bath. The samples were loaded into a 0.8% agarose gel in 1× Tris-Borate-EDTA (TBE) at a 0.2 μg/mL ethidium bromide concentration and allowed to run in an electrophoretic chamber for 1 hour at 100V. Compounds with the highest inhibitory activity were selected for 2-fold serial dilution dose-response assays (58.6 nM-30 μM). The dose-response assays followed the same protocol with the exception of 4 U/reaction of TOP2A.
Inhibition studies of TOP2A and observed structure activity relationships (SAR). DNA catenation/decatenation or linking/unlinking of DNA is one of the main TOP2A functions essential for regulating DNA topology, and this is ATP dependent. […] Thus, as a starting point, the synthesized analogs were screened against TOP2A-dependent decatenation using 30 μM fixed concentrations, and the DNA from reactions were resolved on 0.8% agarose gels containing ethidium bromide.
Moreover, these studies provided interesting SAR, which shed light on the potential lead drug target binding interactions and affinity, biological activity, and future drug design optimization with this unique class of TOP2A inhibitors.
(§1) TOP2A decatenation assay. Human TOP2A, kDNA, and assay buffers were obtained from TopoGEN (Buena Vista, CO). The synthesized compounds were screened for their TOP2A inhibitory activity by the intensity of DNA decatenation bands on a DNA gel when compared to the vehicle. Compounds were initially incubated with TOP2A (3 U/reaction) for 20 min at a 30 μM and 1.2% DMSO concentration in a 37° C. incubator without CO2. The decatenation reaction was initiated immediately after by adding 2 mM ATP and 35 ng/reaction of kDNA, then incubated for 1 h in a 37° C. water bath. The samples were loaded into a 0.8% agarose gel in 1× Tris-Borate-EDTA (TBE) at a 0.2 μg/mL ethidium bromide concentration and allowed to run in an electrophoretic chamber for 1 h at 100V. Compounds with the highest inhibitory activity were selected for 2-fold serial dilution dose-response assays (58.6 nM-30 μM). The dose-response assays followed the same protocol with the exception of 4 U/reaction of TOP2A,
as §1, with “assays (53.6” for “assays (58.6”, “of TOP2A.” for “of TOP2A,”

SW620 tumor organoids = assay: Tumor organoid cytotoxicity / 3D cell viability (CellTox Green); format: cell-based; conditions: Homo sapiens, SW-620, Table 2, 72 hours
Procedure: Tumor organoid cytotoxicity. Fluorescence image-based method: The CellTox™ Green assay (Promega, Madison, WI, USA) was used with 3D tumor organoid to measure spheroid death. 0.1% CellTox™ Green was included in each well at the time of analogs dosing. 10% lysis solution was used as a cell death control. Fluorescence was measured at various time points with 465-510 nm excitation and 520-530 nm emission. Luminescence plate reader method: A 1:1 ratio of CellTiter-Glo™ 3D reagent (Promega) was added to 3D tumor organoid and the plate was shaken at 400 rpm for 30 min before luminescence was read with a PerkinElmer Envision plate reader.
Finally, SW620 tumor organoid cytotoxicity experiments were conducted using the CellTox Green assay, a fluorescence image-based method, to determine whether the inhibition of TCF transcription and effects on EMT are not the result of cytotoxicity. […] All of the analogs tested display IC50 dose response >30 μM and were higher compared to the IC50 values obtained during the downregulation of TCF transcription activity, and the EC50 values obtained for EMT modulation. Thus, the biological effects on TCF-transcription and EMT are not a result of tumor organoid cell death.
(§2) Tumor organoid cytotoxicity. SW620 tumor organoids were grown as previously outlined. CellTox™ Green-Express Cytotoxicity Assay (Promega, WI) solution was prepared per manufacturer's protocol. Briefly, organoids were treated for 72 h with CellTox™ Green Express (0.5×) reagent and various doses of TOP2A inhibitors over a range of 0-to-40 μM. Organoids were then imaged using the Opera Phenix HCS system (PerkinElmer, MA). CellTox™ Green Express was excited at 488 nm and emission was detected at 500-550 nm. Mean intensity of the whole well was utilized for calculating cytotoxicity with Lysis Buffer (Promega, WI, 0.025×) as the 0% viability control and 0.4% DMSO as the 100% viability control. Intensity values were normalized to these controls using GraphPad Prism 7.0 (GraphPad, CA).
as §2, with “CellTox™-Green-Express” for “CellTox™ Green-Express”, “(GraphPad.” for “(GraphPad,”

[2] = test system: E-cadherin promoter activity (EcadPro-RFP) in SW620 cells; assay: EcadPro-RFP (mCherry) EMT reporter assay; format: cell-based; conditions: Homo sapiens, SW-620; Table 3; SW620 Cells; read-out: E-cadherin Up-regulation EC50
Description: (§3) VimPro-GFP and EcadPro-RFP reporter assays. […] 35(38): p. 4990-9.]
as §3

[3] = test system: vimentin promoter activity (VimPro-GFP) in SW620 cells; assay: VimPro-GFP EMT reporter assay; conditions: Homo sapiens, SW-620, read-out: Vimentin Down-regulation EC50 (μM)
Procedure: VimPro-GFP and EcadPro-mCherry reporter assays. VimPiro-GFP: SW620 cells were first transduced with NucLight Red virus (Essen BioSciences) and selected with Zeocin at 200 μg/mL, and then transduced with pCDH-VimPro-GFP-EF1-puro virus and selected with puromycin at 4 μg/mL. The dual fluorescently labeled cells were plated and treated in 3D tumor organoid as described. Tumor organoid images were recorded every 2 hours over a 72 hours period using an incucyte ZOOM content imaging system (Essen BioSciences) or PerkinElmer Phenix imager (PerkinElmer).
Analogs were also assessed for their ability to modulate or reverse EMT using VimPro-GFP and EcadPro-RFP SW620 reporter cells cultured as tumor organoids, determining EC50 dose responses over 72 hours (Table 2).
VimPro-GFP and EcadPro-RFP reporter assays. Stable VimPro-GFP or EcadPro-RFP SW620 reporter cells were generated using pCDH-VimPro-GFP-EF1-puro virus or pCDH-EcadPro-mCherry-EF1-puro virus as previously reported. […] Transduced cells were selected with puromycin at 2 μg/mL. The stable fluorescent labeled reporter cells were then used to generate tumor organoids as described. Tumor organoids were then treated with TOP2A inhibitors at 10 μM for an additional 72 h. Following treatment, tumor organoids were stained with 16 μM of Hoechst 33342 for 1 h, which functions as a nuclear stain for imaging segmentation. Images were taken with a 5× air objective. Z stacks were set at 20 μm apart for a total of 7 layers. Imaging analysis was performed using an Opera Phenix high content screening (HCS) system and Harmony high-content imaging and analysis software interface (PerkinElmer, MA). Nuclei were identified with Hoechst 33342 stain within each layer, and cells were found with either GFP or mCherry channel. The intensities of each fluorescence channel within the cells were calculated and thresholds were set based on the background intensities. Percentages of GFP or mCherry positive cells were calculated and normalized to the DMSO treated group.
VimPro-GFP and EcadPro-RFP reporter assays. Stable VimPro-GFP or EcadPro-RFP SW620 reporter cells were generated using pCDH-VimPro-GFP-EF1-puro virus or pCDH-EcadPro-mCherry-EF1-puro virus as previously reported. […] Transduced cells were selected with puromycin at 2 μg/mL. The stable fluorescent labeled reporter cells were then used to generate tumor organoids as described. Tumor organoids were then treated with TOP2A inhibitors at 10 μM for an additional 72 h. Following treatment, tumor organoids were stained with 16 μM of Hoechst 33342 for 1 h, which functions as a nuclear stain for imaging segmentation. Images were taken with a 5× air objective.

[4] = Water solubility (stated); format: physicochemical
[5] = 1 h, Table 1, decatenation, 30 μM fixed concentration, read-out: % Inhibition TOP2A (30 μM)
[6] = decatenation dose response, read-out: IC50 TOP2A inhibition
[7] = Table 3, 30 μM, read-out: % TOP2A Decatenation inhibition (30 μM)
[8] = Table 1, decatenation dose response, read-out: % Inhibition TOP2A (IC50 Values)
[9] = Table 3, read-out: TOP2A Inhibition IC50

| SMILES | inhibition at 30 µM (Human TOP2A; [7]) [%] | EC50 [2] [µM] | EC50 [3] [µM] | other results |
| --- | --- | --- | --- | --- |
| COc1c(NC(C)=O)ccc2c(-c3cc4ccccc4s3)ccnc12 [Analog 45] |  |  |  | IC50 [1]: 10.7 µM |
| O=C(CN1CCOCC1)Nc1ccc2c(-c3cc(F)ccc3O)ccnc2c1O [Analog 41] |  |  |  | % Inhibition TOP2A (30 μM) (Human TOP2A; Table 1, decatenation, 30 μM fixed concentration): 4.0%; IC50 [1]: 4.7 µM |
| CC(=O)Nc1ccc2c(-c3cc4ccccc4o3)ccnc2c1O [Analog 53] |  |  |  | inhibition at 30 µM (Human TOP2A; [5]): 100%; IC50 (Human TOP2A; [6]): 0.24 µM and 0.2 µM; TOP2A inhibition, result in words (Human TOP2A; decatenation screen at 30 μM): complete inhibitory activity against TOP2A; IC50 (SW620 tumor organoids): > 30 µM |
| O=C(CN1CCOCC1)Nc1ccc2c(NC3CCCCC3)ccnc2c1O [AA-34-171] | 62 | 48.2 | 17.5 |  |
| O=C(CCN1CCOCC1)Nc1ccc2c(NC3CCCCC3)ccnc2c1O [AA-34-180] | 0 | 65.5 | 13 |  |
| CC(=O)Nc1ccc2c(Nc3ccccc3)ccnc2c1O [AA-29-148] | 100 | 7.6 | 25.9 |  |
| CC(=O)Nc1ccc2c(-c3cccs3)ccnc2c1O [Analog 57] |  |  |  | inhibition at 30 µM (Human TOP2A; [5]): 100%; IC50 (Human TOP2A; [8]): 2.3 µM; IC50 [1]: 7 µM |
| CC(=O)Nc1ccc2c(NC3CCCC3)ccnc2c1O [AA-34-131] | 92 | 21.3 | 23 | IC50 (Human TOP2A; [9]): 2.16 µM |
| CC(=O)Nc1ccc2c(Nc3cccc(F)c3)ccnc2c1O [AA-29-146] | 100 | 9.7 | 7.4 |  |
| O=C(CCN1CCOCC1)Nc1ccc2c(-c3cc4ccccc4o3)ccnc2c1O [Analog 61] |  |  |  | inhibition at 30 µM (Human TOP2A; [5]): 83%; IC50 (Human TOP2A; [8]): 4.1 µM; IC50 (Human TOP2A; [6]): 4 µM; fold less potent compared to 53 (TOP2A IC50) (Human TOP2A; ratio of TOP2A IC50 values): 20 fold; water solubility, in words [4]: maintains water solubility |
| CC(=O)Nc1ccc2c(NC3CCCCC3)ccnc2c1O [AA-29-216] | 100 | 17.8 | 20.6 | IC50 (Human TOP2A; [9]): 0.29 µM |
